{"source": "patent US12329850B2", "about": "“Microalgae having high loliolide productivity” (KOREA RESEARCH INSTITUTE OF BIOSCIENCE AND BIOTECHNOLOGY, priority 2019, dated 2025)", "format_in_all_cases": "cell-based", "key": {"[1]": {"test_system": "human dermal fibroblasts (HDFs)", "experiment": "WST-1 assay, cytotoxicity of loliolide on human dermal fibroblasts", "details": "loliolide up to 20 μg/mL, 24 hours", "description": "The purification of loliolide was performed in the same manner as in Example 3, and an extract was obtained using ethyl acetate from a lyophilized culture of the Scenedesmus sp. HS4 microalgae of the present invention, and loliolide was purified through fractionation/concentration. In the case of culturing human dermal cells, human dermal fibroblasts purchased from Lonza (Basel, Switzerland) were cultured in a 5% CO2 cell incubator at 37° C. using a medium in which 10% fetal bovine serum (FBS, 51480, Biowest, France) was further added to Dulbecco's modified Eagle's medium (DMEM medium, L0103-500, Biowest, France).\nFirst, whether loliolide has cytotoxicity against human dermal fibroblasts was confirmed through WST-1 assay. After dispensing the cultured human dermal fibroblasts into a 96-well plate at 4×10^3 cells/well and culturing for 24 hours, the loliolide purified from Scenedesmus sp. HS4 microalgae was treated at concentrations of 0 μg/mL, 2 μg/mL, 5 μg/mL, 10 μg/mL, and 20 μg/mL, respectively. After 24 hours have elapsed after the loliolide treatment, the solution was treated in the medium using a WST-1 assay kit (EZ-cytox cell viability kit, Itshio, Korea), the absorbance was measured at a wavelength of 450 nm with a microplate reader (iMark microplate reader, Bio-Rad, USA)."}, "[2]": {"test_system": "human dermal fibroblasts irradiated with UVB", "experiment": "WST-1 assay, cell viability recovery in UVB-irradiated human dermal fibroblasts", "details": "loliolide 2 μg/mL for 6 hours, then UVB 10 mJ/cm^2, 24 hours", "description": "Human dermal fibroblasts cultured in the same manner as in Example 6 were dispensed in a 96-well plate by 4×10^3 cells/well, and loliolide was treated at concentrations of 2 μg/mL, 5 μg/mL, 10 μg/mL, and 20 μg/mL for 6 hours. Then, the medium was irradiated with UVB at 10 mJ/cm^2 and cultured further for 24 hours, and cell viability was measured by performing a WST-1 assay in the same manner as in Example 6."}, "ColA1 gene": {"test_system": "ColA1 gene", "experiment": "qRT-PCR, expression of collagen gene in UVB-irradiated human dermal fibroblasts", "details": "24 hours, UVB-only control 30%", "description": "(§1) First, human dermal fibroblasts cultured in the same manner as in Example 6 were dispensed in a 96-well plate in an amount of 4×10^3 cells/well, and UVB was irradiated to the medium at 10 mJ/cm^2. […] Thereafter, the changes in expression levels of the ColA1 gene and the MMP1 gene were measured through quantitative real time-PCR (qRT-PCR). During this process, SYBR green I (Invitrogen), which is a fluorescent material, was used to examine the amount of the DNA product amplified by PCR in real time. Specifically, 0.2 μM of the primers prepared with the sequences shown in Table 3 below were added to a PCR tube, and mixed with 50 mM KCl, 20 mM Tris/HCl (pH 8.4), 0.8 mM dNTP, 0.5 U DNA polymerase (Extaq DNA polymerase), 3 mM MgCl2 and 1×SYBR Green I so as to prepare a reaction solution. Then, PCR was performed using a PCR device (Linegene K, BioER, China)(PCR conditions: primary denaturation for 3 minutes, denaturation at 94° C. for 30 seconds, annealing at 58° C. for 30 seconds, and polymerization at 72° C. for 30 seconds, a total of 40 cycles), and the fluorescence intensity was measured for each cycle."}, "MMP1 gene": {"test_system": "MMP1 gene", "experiment": "qRT-PCR, expression of collagenase gene in UVB-irradiated human dermal fibroblasts", "details": "24 hours, UVB-only control 2.4-fold increase", "description": "as §1"}, "[3]": {"details": "UVB 10 mJ/cm^2, then loliolide 5 μg/mL"}, "[4]": {"details": "UVB 10 mJ/cm^2, then loliolide 10 μg/mL"}}, "data": [{"smiles": "CC1(C)C[C@H](O)C[C@@]2(C)OC(=O)C=C12", "note": "[loliolide]", "values": [{"measurement": "toxicity to human dermal fibroblasts (relative viability vs untreated control)", "setting": "[1]", "value": "not toxic"}, {"measurement": "cell viability compared to the UVB control group", "setting": "[2]", "value": "significantly increased"}, {"measurement": "expression level of ColA1 gene, based on cells without any treatment", "setting": "ColA1 gene; [3]", "value": 55, "unit": "%"}, {"measurement": "expression level of ColA1 gene, based on cells without any treatment", "setting": "ColA1 gene; [4]", "value": 65, "unit": "%"}, {"measurement": "expression level of MMP1 gene", "setting": "MMP1 gene; [3]", "value": 25, "unit": "%"}, {"measurement": "expression level of MMP1 gene", "setting": "MMP1 gene; [4]", "value": 46, "unit": "%"}]}]}
